Experimental data: ChEMBL document CHEMBL2424658, “Design, synthesis, and evaluation of novel 1-methyl-3-substituted quinazoline-2,4-dione derivatives as antimicrobial agents” (2013)
≈ marks a conversion by molar mass, not a printed value.

Assays:
Assay type in all cases: functional
[1] = test system: Pseudomonas aeruginosa; assay: Antibacterial activity against Pseudomonas aeruginosa CR 56 after overnight incubation by […] method
[2] = test system: Bacillus; assay: Antibacterial activity against Bacillus proteus after overnight incubation by […] method
[3] = test system: Escherichia coli; assay: Antibacterial activity against Escherichia coli JM 109 after overnight incubation by […] method
[4] = test system: Bacillus subtilis; assay: Antibacterial activity against Bacillus subtilis ATCC 6633 after overnight incubation by […] method
[5] = test system: Staphylococcus aureus; assay: Antibacterial activity against methicillin-resistant Staphylococcus aureus N315 after overnight incubation by […] method
[6] = test system: Staphylococcus aureus; assay: Antibacterial activity against Staphylococcus aureus ATCC 25923 after overnight incubation by […] method
[7] = test system: Cryptococcus neoformans; assay: Antifungal activity against Cryptococcus neoformans after overnight incubation by […] method
[8] = test system: Aspergillus flavus; assay: Antifungal activity against Aspergillus flavus 3905 after overnight incubation by […] method
[9] = test system: Candida albicans; assay: Antifungal activity against Candida albicans ATCC 76615 after overnight incubation by […] method
[10] = test system: Candida; assay: Antifungal activity against Candida mycoderma after overnight incubation by […] method
[11] = test system: Saccharomyces cerevisiae; assay: Antifungal activity against Saccharomyces cerevisiae CGMCC2.145 after overnight incubation by […] method

Structure (SMILES)	MIC [1]	MIC [2]	MIC [3]	MIC [4]	MIC [5]	MIC [6]	MIC [7]	MIC [8]	MIC [9]	MIC [10]	MIC [11]
CN[C@@H]1[C@H](O[C@H]2[C@H](O[C@H]3[C@H](O)[C@@H](O)[C@H](N=C(N)N)[C@@H](O)[C@@H]3N=C(N)N)O[C@@H](C)[C@]2(O)C=O)O[C@@H](CO)[C@H](O)[C@H]1O [STREPTOMYCIN]	64 µg/mL (≈ 110 µM)	16 µg/mL (≈ 27.5 µM)	64 µg/mL (≈ 110 µM)	32 µg/mL (≈ 55 µM)	> 512 µg/mL	32 µg/mL (≈ 55 µM)	–	–	–	–	–
COc1ccc(C(=O)NCC(=O)OCCn2c(=O)c3ccccc3n(C)c2=O)cc1	128 µg/mL (≈ 311 µM)	512 µg/mL (≈ 1240 µM)	512 µg/mL (≈ 1240 µM)	4 µg/mL (≈ 9.72 µM)	256 µg/mL (≈ 622 µM)	512 µg/mL (≈ 1240 µM)	32 µg/mL (≈ 77.8 µM)	128 µg/mL (≈ 311 µM)	32 µg/mL (≈ 77.8 µM)	512 µg/mL (≈ 1240 µM)	–
Cn1c(=O)n(CCOC(=O)CNC(=O)c2cccs2)c(=O)c2ccccc21	64 µg/mL (≈ 165 µM)	64 µg/mL (≈ 165 µM)	64 µg/mL (≈ 165 µM)	32 µg/mL (≈ 82.6 µM)	32 µg/mL (≈ 82.6 µM)	512 µg/mL (≈ 1320 µM)	256 µg/mL (≈ 661 µM)	64 µg/mL (≈ 165 µM)	512 µg/mL (≈ 1320 µM)	512 µg/mL (≈ 1320 µM)	–
Cn1c(=O)n(CCOC(=O)CNC(=O)c2ccccc2Cl)c(=O)c2ccccc21	128 µg/mL (≈ 308 µM)	128 µg/mL (≈ 308 µM)	512 µg/mL (≈ 1230 µM)	64 µg/mL (≈ 154 µM)	> 512 µg/mL	512 µg/mL (≈ 1230 µM)	128 µg/mL (≈ 308 µM)	128 µg/mL (≈ 308 µM)	32 µg/mL (≈ 77 µM)	64 µg/mL (≈ 154 µM)	–
Cn1c(=O)n(CCOC(=O)CNC(=O)/C=C\c2ccccc2)c(=O)c2ccccc21	> 512 µg/mL	256 µg/mL (≈ 628 µM)	16 µg/mL (≈ 39.3 µM)	4 µg/mL (≈ 9.82 µM)	4 µg/mL (≈ 9.82 µM)	128 µg/mL (≈ 314 µM)	8 µg/mL (≈ 19.6 µM)	32 µg/mL (≈ 78.5 µM)	512 µg/mL (≈ 1260 µM)	512 µg/mL (≈ 1260 µM)	–
OC(Cn1cncn1)(Cn1cncn1)c1ccc(F)cc1F [FLUCONAZOLE]	–	–	–	–	–	–	0.0312 µg/mL (≈ 0.102 µM)	64 µg/mL (≈ 209 µM)	16 µg/mL (≈ 52.2 µM)	8 µg/mL (≈ 26.1 µM)	> 512 µg/mL
Cn1c(=O)n(CCOC(=O)CNC(=O)c2ccc(F)cc2)c(=O)c2ccccc21	256 µg/mL (≈ 641 µM)	512 µg/mL (≈ 1280 µM)	64 µg/mL (≈ 160 µM)	128 µg/mL (≈ 320 µM)	4 µg/mL (≈ 10 µM)	256 µg/mL (≈ 641 µM)	16 µg/mL (≈ 40.1 µM)	64 µg/mL (≈ 160 µM)	32 µg/mL (≈ 80.1 µM)	64 µg/mL (≈ 160 µM)	–
Cn1c(=O)n(CCOC(=O)CNC(=O)c2cccc([N+](=O)[O-])c2)c(=O)c2ccccc21	512 µg/mL (≈ 1200 µM)	128 µg/mL (≈ 300 µM)	16 µg/mL (≈ 37.5 µM)	256 µg/mL (≈ 600 µM)	4 µg/mL (≈ 9.38 µM)	128 µg/mL (≈ 300 µM)	128 µg/mL (≈ 300 µM)	64 µg/mL (≈ 150 µM)	64 µg/mL (≈ 150 µM)	16 µg/mL (≈ 37.5 µM)	–
Cn1c(=O)n(CCOC(=O)CNC(=O)c2ccc([N+](=O)[O-])cc2)c(=O)c2ccccc21	64 µg/mL (≈ 150 µM)	128 µg/mL (≈ 300 µM)	128 µg/mL (≈ 300 µM)	512 µg/mL (≈ 1200 µM)	8 µg/mL (≈ 18.8 µM)	256 µg/mL (≈ 600 µM)	–	–	512 µg/mL (≈ 1200 µM)	64 µg/mL (≈ 150 µM)	–
Cn1c(=O)n(CCOC(=O)CNC(=O)c2ccco2)c(=O)c2ccccc21	128 µg/mL (≈ 345 µM)	128 µg/mL (≈ 345 µM)	4 µg/mL (≈ 10.8 µM)	4 µg/mL (≈ 10.8 µM)	> 512 µg/mL	256 µg/mL (≈ 689 µM)	128 µg/mL (≈ 345 µM)	64 µg/mL (≈ 172 µM)	32 µg/mL (≈ 86.2 µM)	64 µg/mL (≈ 172 µM)	–
Cc1ccc(C(=O)NCC(=O)OCCn2c(=O)c3ccccc3n(C)c2=O)cc1	128 µg/mL (≈ 324 µM)	32 µg/mL (≈ 80.9 µM)	512 µg/mL (≈ 1290 µM)	64 µg/mL (≈ 162 µM)	512 µg/mL (≈ 1290 µM)	512 µg/mL (≈ 1290 µM)	16 µg/mL (≈ 40.5 µM)	64 µg/mL (≈ 162 µM)	32 µg/mL (≈ 80.9 µM)	512 µg/mL (≈ 1290 µM)	–
Cn1c(=O)n(CCOC(=O)CNC(=O)c2cccc(F)c2)c(=O)c2ccccc21	128 µg/mL (≈ 320 µM)	512 µg/mL (≈ 1280 µM)	128 µg/mL (≈ 320 µM)	256 µg/mL (≈ 641 µM)	32 µg/mL (≈ 80.1 µM)	128 µg/mL (≈ 320 µM)	256 µg/mL (≈ 641 µM)	64 µg/mL (≈ 160 µM)	16 µg/mL (≈ 40.1 µM)	512 µg/mL (≈ 1280 µM)	–
Cn1c(=O)n(CCOC(=O)CNC(=O)c2ccc(Cl)cc2)c(=O)c2ccccc21	256 µg/mL (≈ 616 µM)	256 µg/mL (≈ 616 µM)	256 µg/mL (≈ 616 µM)	128 µg/mL (≈ 308 µM)	512 µg/mL (≈ 1230 µM)	128 µg/mL (≈ 308 µM)	32 µg/mL (≈ 77 µM)	32 µg/mL (≈ 77 µM)	64 µg/mL (≈ 154 µM)	512 µg/mL (≈ 1230 µM)	–
NC(=O)OC[C@H](O)[C@@H](O)[C@H](N)C(=O)N[C@H](C(=O)O)[C@H]1O[C@@H](n2cc(C(=O)O)c(=O)[nH]c2=O)[C@H](O)[C@@H]1O	–	–	–	–	–	–	0.0312 µg/mL (≈ 0.0599 µM)	32 µg/mL (≈ 61.4 µM)	32 µg/mL (≈ 61.4 µM)	8 µg/mL (≈ 15.3 µM)	16 µg/mL (≈ 30.7 µM)
Cc1ccccc1C(=O)NCC(=O)OCCn1c(=O)c2ccccc2n(C)c1=O	256 µg/mL (≈ 647 µM)	32 µg/mL (≈ 80.9 µM)	32 µg/mL (≈ 80.9 µM)	64 µg/mL (≈ 162 µM)	32 µg/mL (≈ 80.9 µM)	512 µg/mL (≈ 1290 µM)	16 µg/mL (≈ 40.5 µM)	128 µg/mL (≈ 324 µM)	512 µg/mL (≈ 1290 µM)	512 µg/mL (≈ 1290 µM)	–
Cn1c(=O)n(CCOC(=O)CNC(=O)c2ccccc2)c(=O)c2ccccc21	> 512 µg/mL	> 512 µg/mL	128 µg/mL (≈ 336 µM)	512 µg/mL (≈ 1340 µM)	> 512 µg/mL	256 µg/mL (≈ 671 µM)	32 µg/mL (≈ 83.9 µM)	64 µg/mL (≈ 168 µM)	512 µg/mL (≈ 1340 µM)	> 512 µg/mL	–
